Test results as given in US9120775B2, “Viral polymerase inhibitors” (Biota Scientific Management Pty Ltd, priority 2012, dated 2015).
In brackets after ≈: the same amount, converted by molar mass. Where two headings read alike, the source gives them in different places.

Columns and labels:
[1] = Aqueous solubility (laser nephelometry); assay type: physicochemical; conditions: aqueous assay buffer pH 6.5 with 1% DMSO, aqueous buffer, kinetic from dmso stock, pH 6.5, 1% DMSO, 30 minute incubation at 25° C.
Description: Test compounds prepared in DMSO were screened in duplicate over a range of concentrations (1.6-100 ug/mL) in different aqueous media (for example a pH6.5 buffers which are relevant to the stomach and upper regions of the small intestine and therefore important when predicting the amount of drug likely to be in solution following oral administration). Test compounds were serially diluted in 100% DMSO ranging from 10-0.16 mg/mL. These titrated DMSO stocks were then further diluted 1:100 with assay buffer and added to test plates (UV Star Griener 384 well plates), maintaining the DMSO concentration at 1%.

1b (BK) NS5BΔ21 = target: T1, 1b (BK) NS5BΔ21 (Hepatitis C virus genotype 1b, UniProt P26663); test: HCV polymerase inhibition assay; assay type: biochemical
T1 construct: 100 nM 1b (BK) NS5BΔ21
T1 sequence (P26663 2420-2989, stated change not applied): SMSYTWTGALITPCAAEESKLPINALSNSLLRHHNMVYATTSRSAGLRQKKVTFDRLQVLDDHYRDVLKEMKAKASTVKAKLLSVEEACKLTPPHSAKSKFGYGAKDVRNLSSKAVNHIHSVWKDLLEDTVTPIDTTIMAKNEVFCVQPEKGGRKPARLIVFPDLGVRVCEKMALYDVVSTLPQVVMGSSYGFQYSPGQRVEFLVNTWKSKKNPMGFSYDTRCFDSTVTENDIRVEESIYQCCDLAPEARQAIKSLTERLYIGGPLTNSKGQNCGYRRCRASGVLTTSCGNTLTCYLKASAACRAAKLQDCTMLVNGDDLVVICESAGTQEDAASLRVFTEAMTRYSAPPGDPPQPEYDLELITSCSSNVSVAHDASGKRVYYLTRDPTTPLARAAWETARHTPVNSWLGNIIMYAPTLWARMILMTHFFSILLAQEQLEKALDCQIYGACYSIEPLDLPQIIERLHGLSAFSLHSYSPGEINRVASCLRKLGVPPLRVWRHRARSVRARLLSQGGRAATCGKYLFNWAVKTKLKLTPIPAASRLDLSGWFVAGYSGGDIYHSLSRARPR
Description: HCV polymerase reactions were carried out using a modified method of Howe et al., Antimicrobial Agents and Chemotherapy 2004 48(12): 4813-4821. Reactions contained a final concentration of, 0.5% DMSO, 100 nM 1b (BK) NS5BΔ21, 20 mM Tris-HCl pH 7.5, 5 mM MgCl2, 5 mM MnCl2, 3 mM DTT, 0.05% BSA, 0.2 U/μL RNasin, 10 μg/mL Poly(rC) template, GTP (at Km) and 0.05 μCi/μL ^33P-GTP in a total reaction volume of 50 μL. Compounds were tested in a three fold dilution series, for example starting from 50 μM. Reactions were initiated with the addition of GTP and terminated after […] with 50 μL ice cold 0.2 M EDTA. Terminated reactions were transferred to DEAE 96-well filter plates, unincorporated nucleotides washed from the filters and 50 μL scintillation fluid added prior to reading on a scintillation counter. The compound concentration that reduced ^33P-GTP incorporation by 50% (IC50) was calculated using non-linear regression.

[2] = system: genotype 1b (Con 1) subgenomic replicon cell line; test: HCV replicon assay, genotype 1b, Renilla luciferase reporter; assay type: cell-based; conditions: Hepatitis C virus; 72 hours incubation, Renilla luciferase activity
Description: A genotype 1b (Con 1) subgenomic replicon cell line based on Blight et al., Science 2000 290: 1972-1974, modified to express a Renilla luciferase reporter gene was used to assess antiviral activity of test compounds. Cell cultures were maintained in a sub-confluent state in DMEM with glutamine, 10% heat-inactivated foetal bovine serum (FBS) and G418 (Geneticin®).
For assay, cells were seeded at a density of 7000 cells/well into 96 well tissue culture trays in culture media lacking G418. Compounds were tested in a three fold dilution series, for example starting from 50 uM. After 72 hours incubation at 37° C. and 5% CO2, Renilla luciferase activity was quantified via the Promega Renilla Luciferase or Renilla-Glo™ Luciferase Assay Systems (Promega corporation. The same method was employed for replicon assays using subgenomic genotype 1a (H77) and 2a (JFH-1) replicon cell lines with a seeding cell density of 5000 cells/well for the 2a cell lines.
The compound concentration that reduced luciferase activity by 50% (EC50) was calculated using non-linear regression.

[3] = read-out: solubility ranges at pH 6.5

SMILES	solubility at 30 min ([1]; read-out: Solubility at pH 6.5) [µg/mL]	IC50 (1b (BK) NS5BΔ21) [µM]	EC50 [2] [µM]	solubility at 30 min [1, 3] [µg/mL]
CNC(=O)c1c2cc(C3CC3)c(N(CC3CCC3)S(C)(=O)=O)cc2nn1-c1ccc(Cl)cc1 [A, reference compound]	1.6 to 3.1 (≈ 3.29 to 6.37 µM)	–	–	–
CNC(=O)c1c2cc(C3CC3)c(N(CC3CC3)S(C)(=O)=O)cc2nn1-c1ccc(Cl)cc1 [B, reference compound]	3.1 to 6.3 (≈ 6.55 to 13.3 µM)	–	–	–
CNC(=O)c1c2cc(C3CC3)c(N(CC3CCOC3)S(C)(=O)=O)cc2nn1-c1ccc(Cl)cc1 (centres unmarked) [C, reference compound]	< 1.6	–	–	–
CNC(=O)c1c2cc(C3CC3)c(N(CCCC3CCO3)S(C)(=O)=O)cc2nn1-c1ccc(Cl)cc1 (centres unmarked) [Compound 4, 2-(4-chlorophenyl)-5-cyclopropyl-N-methyl-6-{(methylsulfonyl)[3-(oxetan-2-yl)propyl]amino}-2H-indazole-3-carboxamide]	–	< 0.1	< 0.1	–
CNC(=O)c1c2cc(C3CC3)c(N(CCC3COC3)S(C)(=O)=O)cc2nn1-c1ccc(C)cn1 [Compound 5, 5-cyclopropyl-N-methyl-2-(5-methylpyridin-2-yl)-6-{(methylsulfonyl)[2-(oxetan-3-yl)ethyl]amino}-2H-indazole-3-carboxamide]	–	0.5 to 0.99	–	–
CNC(=O)c1c2cc(C3CC3)c(N(CCC3CNC3)S(C)(=O)=O)cc2nn1-c1ccc(Cl)cc1 [Compound 6, 6-{[2-(Azetidin-3-yl)ethyl](methylsulfonyl)amino}-2-(4-chlorophenyl)-5-cyclopropyl-N-methyl-2H-indazole-3-carboxamide]	–	0.1 to 0.49	1 to 10	–
CNC(=O)c1c2cc(C3CC3)c(N(CCC3CN(C)C3)S(C)(=O)=O)cc2nn1-c1ccc(Cl)cc1 [Compound 7, 2-(4-chlorophenyl)-5-cyclopropyl-N-methyl-6-{[2-(1-methylazetidin-3-yl)ethyl](methylsulfonyl)amino}-2H-indazole-3-carboxamide]	–	0.1 to 0.49	0.1 to 0.49	–
CNC(=O)c1c2cc(C3CC3)c(N(CCC3COC3C)S(C)(=O)=O)cc2nn1-c1ccc(Cl)cc1 (centres unmarked) [Compound 9, 2-(4-Chlorophenyl)-5-cyclopropyl-N-methyl-6-[{2[-2-methyloxetan-3-yl]ethyl}(methylsulfonyl)amino]-2H-indazole-3-carboxamide]	–	–	–	25 to 50 (≈ 48.4 to 96.7 µM)
CNC(=O)c1c2cc(C3CC3)c(N(CCC3COC3)S(C)(=O)=O)cc2nn1-c1ccc(Cl)cc1 [Compound 10, 2-(4-chlorophenyl)-5-cyclopropyl-N-methyl-6-{(methylsulfonyl)[2-(oxetan-3-yl)ethyl]amino}-2H-indazole-3-carboxamide]	–	< 0.1	< 0.1	–
CNC(=O)c1c2cc(C3CC3)c(N(CCC3(C)COC3)S(C)(=O)=O)cc2nn1-c1ccc(Cl)cc1 [Compound 11, 2-(4-chlorophenyl)-5-cyclopropyl-N-methyl-6-{[2-(3-methyloxetan-3-yl)ethyl](methylsulfonyl)amino}-2H-indazole-3-carboxamide]	–	< 0.1	< 0.1	–
CNC(=O)c1c2cc(C3CC3)c(N(CC3(C)COC3)S(C)(=O)=O)cc2nn1-c1ccc(Cl)cc1 [Compound 12, 2-(4-chlorophenyl)-5-cyclopropyl-N-methyl-6-{[(3-methyloxetan-3-yl)methyl](methylsulfonyl)amino}-2H-indazole-3-carboxamide]	–	1 to 10	1 to 10	–
CNC(=O)c1c2cc(C3CC3)c(N(CCC3CCO3)S(C)(=O)=O)cc2nn1-c1ccc(Cl)cc1 (centres unmarked) [Compound 13, 2-(4-chlorophenyl)-5-cyclopropyl-N-methyl-6-{(methylsulfonyl)[2-(oxetan-2-yl)ethyl]amino}-2H-indazole-3-carboxamide]	–	0.1 to 0.49	< 0.1	–
CNC(=O)c1c2cc(C3CC3)c(N(CC(C)C3COC3)S(C)(=O)=O)cc2nn1-c1ccc(Cl)cc1 (centres unmarked) [Compound 15, 2-(4-chlorophenyl)-5-cyclopropyl-N-methyl-6-{(methylsulfonyl) [2-(oxetan-3-yl)propyl]amino}-2H-indazole-3-carboxamide]	–	0.1 to 0.49	0.5 to 0.99	–
CNC(=O)c1c2cc(C3CC3)c(N(CCC3(C(C)C)COC3)S(C)(=O)=O)cc2nn1-c1ccc(Cl)cc1 [Compound 16, 2-(4-chlorophenyl)-5-cyclopropyl-N-methyl-6-[(methylsulfonyl) {2-[3-(propan-2-yl)oxetan-3-yl]ethyl}amino]-2H-indazole-3-carboxamide]	–	< 0.1	< 0.1	–
CNC(=O)c1c2cc(C3CC3)c(N(CCC3CN(C(=O)OC(C)(C)C)C3)S(C)(=O)=O)cc2nn1-c1ccc(Cl)cc1 [Compound 19, tert-butyl 3-(2-{[2-(4-chlorophenyl)-5-cyclopropyl-3-(methylcarbamoyl)-2H-indazol-6-yl](methylsulfonyl)amino}ethyl)azetidine-1-carboxylate]	–	0.1 to 0.49	< 0.1	–
CNC(=O)c1c2cc(C3CC3)c(N(CCC3COC3C)S(C)(=O)=O)cc2nn1-c1ccc(C)cn1 (centres unmarked) [Compound 20, 5-cyclopropyl-N-methyl-6-{[2-(2-methyloxetan-3-yl)ethyl](methylsulfonyl)amino}-2-(5-methylpyridin-2-yl)-2H-indazole-3-carboxamide]	–	–	–	12.5 to 25 (≈ 25.1 to 50.2 µM)
CNC(=O)c1c2cc(C3CC3)c(N(CCC3(C)COC3)S(C)(=O)=O)cc2nn1-c1ccc(C)cn1 [Compound 21, 5-cyclopropyl-N-methyl-6-{[2-(3-methyloxetan-3-yl)ethyl](methylsulfonyl)amino}-2-(5-methylpyridin-2-yl)-2H-indazole-3-carboxamide]	–	–	–	> 100
CNC(=O)c1c2cc(C3CC3)c(N(CCN3CC(O)C3)S(C)(=O)=O)cc2nn1-c1ccc(Cl)cc1 [Compound 22, 2-(4-chlorophenyl)-5-cyclopropyl-6-[2-(3-hydroxyazetidin-1-yl)ethyl-methylsulfonyl-amino]-N-methyl-indazole-3-carboxamide]	–	0.5 to 0.99	0.1 to 0.49	–
CNC(=O)c1c2cc(C3CC3)c(N(CCC3CN(C(=O)OC(C)(C)C)C3)S(C)(=O)=O)cc2nn1-c1ccc(C)cn1 [Compound 24, tert-butyl 3-[2-[[5-cyclopropyl-3-(methylcarbamoyl)-2-(5-methyl-2-pyridyl)indazol-6-yl]-methylsulfonyl-amino]ethyl]azetidine-1-carboxylate]	–	–	–	12.5 to 25 (≈ 21.5 to 42.9 µM)
CNC(=O)c1c2cc(C3CC3)c(N(CCC3(OC)CN(C(=O)OC(C)(C)C)C3)S(C)(=O)=O)cc2nn1-c1ccc(Cl)cc1 [Compound 27, tert-butyl 3-[2-[[2-(4-chlorophenyl)-5-cyclopropyl-3-(methylcarbamoyl)indazol-6-yl]-methylsulfonyl-amino]ethyl]-3-methoxy-azetidine-1-carboxylate]	–	0.5 to 0.99	< 0.1	–
CNC(=O)c1c2cc(C3CC3)c(N(CCC3(OC)COC3)S(C)(=O)=O)cc2nn1-c1ccc(C)cn1 [Compound 28, 5-cyclopropyl-6-[2-(3-methoxyoxetan-3-yl)ethyl-methylsulfonyl-amino]-N-methyl-2-(5-methyl-2-pyridyl)indazole-3-carboxamide]	–	–	–	50 to 100 (≈ 97.3 to 195 µM)
CNC(=O)c1c2cc(C3CC3)c(N(CCC3COC3C)S(C)(=O)=O)cc2nn1-c1ccc(Cl)cc1 (centres unmarked) [Compound 31, 2-(4-chlorophenyl)-5-cyclopropyl-N-methyl-6-[2-[-2-methyloxetan-3-yl]ethyl-methylsulfonyl-amino]indazole-3-carboxamide]	–	0.1 to 0.49	< 0.1	–
CNC(=O)c1c2cc(C3CC3)c(N(CCC3(CNC(=O)OC(C)(C)C)COC3)S(C)(=O)=O)cc2nn1-c1ccc(C)cn1 [Compound 35, tert-butyl N-[[3-[2-[[5-cyclopropyl-3-(methylcarbamoyl)-2-(5-methyl-2-pyridyl)indazol-6-yl]-methylsulfonyl-amino]ethyl]oxetan-3-yl]methyl]carbamate]	–	–	1 to 10	12.5 to 25 (≈ 20.4 to 40.8 µM)
CNC(=O)c1c2cc(C3CC3)c(N(CCC3CCOCC3)S(C)(=O)=O)cc2nn1-c1ccc(Cl)cc1 [D, reference compound]	< 1.6	–	–	–
